Assay [1] has as its system Wnt/β-catenin signaling (β-catenin activity) in HEK293 cell line. Briefly: Cell-based Wnt agonist screening, TCF luciferase reporter, HEK293 (TCF-FL). Also noted: species or system human. The following applies: Homo sapiens, HEK293, 24 h, % of LiCl (20 mM), 24 h, read-out: Max. Activity (%); for Emax at 30 µM: Conc. 30 μM; for Emax at 120 µM: Conc. 120 μM; for Emax at 15 µM: Conc. 15 μM. The text has this:
(§1) In order to measure the in vitro activity of compounds of the present invention, two human cancer cell lines, HEK293 and SW480, which have intact Wnt signaling and show APC gene mutation in the Wnt signaling pathway, respectively, were used.
(§2) For evaluating the activity of wnt/β-catenin signaling in the cancer cell lines, gene as illustrated in FIG. 1 having β-catenin-binding sites of the Tcf/Lef transcriptional control protein (5 sites of TCF, 5X TCF) and having a fire fly luficerase as a marker protein ascertainable the activity of 5X TCF was introduced into the cells. Treatment with G418 led monoclones of the cell lines, in which the genes were permanently expressed, so as to construct a cell-based Wnt agonist screening system. […] For comparison with the activity of the isoxazole derivatives as Wnt agonists, lithium chloride (LiCl), acting as a positive control for the cell-based Wnt agonist screening system, was used to determine the expression level of the luciferase, and the results are shown in FIG. 3.
(§3) The cell lines, in which a cell-based Wnt agonist screening system was constructed, were cultured in RPMI 1640 media supplemented with penicillin-streptomycin (100 Units/mL) and heat-inactivated 5% fetal bovine serum under standard culture conditions (5% CO2, 37° C., 100% relative humidity). […] The suspension was diluted with the same medium to adjust the cell count to 8,000˜15,000 cells per well and was moved then in a 96-well microtiter plate. After being incubated for 24 hrs, the cells were treated with various concentrations of the isoxazole derivatives synthesized in Preparation Examples. Incubation for an additional 24 hours was followed by the quantitative analysis of luciferase activity using a Luciferase Assay kit (Promega, U.S.A.) according to the protocol described in the manual provided by the manufacturer. Data on the activities of the isoxazole derivatives thus synthesized are given in Tables 34 to 43, and are expressed as percentages relative to the activity of the positive control LiCl (20 mM), a well-known agonist of Wnt signaling.
(In a reporter assay the amount or activity of a reporter protein is the signal.)

The subject of assay [2] is Wnt/β-catenin signaling (β-catenin activity) in SW480 cell line. Description: Cell-based Wnt agonist screening, TCF luciferase reporter, SW480 (TCF-FL). The following applies: Homo sapiens, % of LiCl (20 mM), 24 h, read-out: Max. Activity (%); for Emax at 30 µM: Con. 30 μM; for Emax at 60 µM: Con. 60 μM; for Emax at 120 µM: Con. 120 μM. Also noted: species or system human.
Source text: as §1, §2, §3

SMILES strings stand for the structures.

In the case of `Nc1ccccc1NC(=O)c1cc(-c2ccco2)on1` [Derivative (3), 5-furan-2-yl-isoxazole-3-carboxylic acid (2-amino-phenyl)-amide], the Emax at 30 µM in assay [1] was under 20%. In assay [2] (Con. 40 μM), the Emax at 40 µM came out at 331%.

With `O=C(NCc1ccccc1)c1cc(-c2ccco2)on1` [Derivative (4), 5-furan-2-yl-isoxazole-3-carboxylic acid benzylamide], the Emax at 30 µM in assay [1] and in assay [2] was under 20% throughout.

With `O=C(NCCc1ccccc1)c1cc(-c2ccco2)on1` [Derivative (5), 5-furan-2-yl-isoxazole-3-carboxylic acid phenethyl-amide], the Emax at 30 µM is under 20% in assay [1] and 148% in assay [2].

As for `O=C(NCCCc1ccccc1)c1cc(-c2ccco2)on1` [Derivative (6), 5-furan-2-yl-isoxazole-3-carboxylic acid (3-phenyl-propyl)-amide], the Emax at 30 µM in assay [1] was under 20%. In addition, the Emax at 60 µM in assay [2] was determined as 322%.

On to `O=C(NCc1ccccn1)c1cc(-c2ccco2)on1` [Derivative (7), 5-furan-2-yl-isoxazole-3-carboxylic acid (pyridin-2-ylmethyl)-amide], for which the Emax at 30 µM in assay [1] and in assay [2] was under 20% throughout.

In the case of `O=C(NCc1cccnc1)c1cc(-c2ccco2)on1` [Derivative (8), 5-furan-2-yl-isoxazole-3-carboxylic acid (pyridin-3-ylmethyl)-amide], the Emax at 30 µM in assay [1] and in assay [2] was under 20% each time.

Consider `O=C(NCc1ccncc1)c1cc(-c2ccco2)on1` [Derivative (9), 5-furan-2-yl-isoxazole-3-carboxylic acid (pyridin-4-ylmethyl)-amide], for which the Emax at 30 µM in assay [1] and in assay [2] was under 20% throughout.

Take `O=C(NCCc1cccnc1)c1cc(-c2ccco2)on1` [Derivative (11), 5-furan-2-yl-isoxazole-3-carboxylic acid (2-pyridin-3-yl-ethyl)-amide]: in assay [1], the Emax at 30 µM amounted to 61%. In assay [2], the Emax at 60 µM was 625%.

Take `O=C(NCCc1ccccc1F)c1cc(-c2ccco2)on1` [Derivative (16), 5-furan-2-yl-isoxazole-3-carboxylic acid [2-(2-fluoro-phenyl)-ethyl]-amide]: the Emax at 30 µM was under 20% in assay [1] and 327% in assay [2].

Take `O=C(NCCc1cccc(F)c1)c1cc(-c2ccco2)on1` [Derivative (17), 5-furan-2-yl-isoxazole-3-carboxylic acid [2-(3-fluoro-phenyl)-ethyl]-amide]: the Emax at 30 µM in assay [1] is under 20%. The Emax at 60 µM in assay [2] came out at 200%.

For `O=C(NCCc1ccc(F)cc1)c1cc(-c2ccco2)on1` [Derivative (18), 5-furan-2-yl-isoxazole-3-carboxylic acid [2-(4-fluoro-phenyl)-ethyl]-amide], the Emax at 30 µM in assay [1] was under 20%. The Emax at 15 µM in assay [2] (Con. 15 μM) is 149%.

Regarding `COc1cccc(CCNC(=O)c2cc(-c3ccco3)on2)c1` [Derivative (20), 5-furan-2-yl-isoxazole-3-carboxylic acid [2-(3-methoxy-phenyl)-ethyl]-amide], the Emax at 30 µM in assay [1] was under 20%. In assay [2], the Emax at 60 µM came to 528%.

On to `O=C(NCCc1cccc(O)c1)c1cc(-c2ccco2)on1` [Derivative (23), 5-furan-2-yl-isoxazole-3-carboxylic acid [2-(3-hydroxy-phenyl)-ethyl]-amide], for which the Emax at 30 µM in assay [1] and in assay [2] was under 20% each time.

`O=C(NCCc1ccc(Br)cc1)c1cc(-c2ccco2)on1` [Derivative (25), 5-furan-2-yl-isoxazole-3-carboxylic acid [2-(4-bromo-phenyl)-ethyl]-amide]: the Emax at 30 µM in assay [1] is under 20%. Further, the Emax at 120 µM in assay [2] came to 223%.

As for `Nc1ccc(CCNC(=O)c2cc(-c3ccco3)on2)cc1` [Derivative (26), 5-furan-2-yl-isoxazole-3-carboxylic acid [2-(4-amino-phenyl)-ethyl]-amide], the Emax at 30 µM in assay [1] and in assay [2] was under 20% each time.

`O=C(NCCc1ccc([N+](=O)[O-])cc1)c1cc(-c2ccco2)on1` [Derivative (27), 5-furan-2-yl-isoxazole-3-carboxylic acid [2-(4-nitro-phenyl)-ethyl]-amide]: the Emax at 30 µM in assay [1] and in assay [2] was under 20% each time.

Turning to `O=C(NCCc1ccc2c(c1)OCO2)c1cc(-c2ccco2)on1` [Derivative (29), 5-furan-2-yl-isoxazole-3-carboxylic acid (2-benzo[1,3]dioxol-5-yl-ethyl)-amide], the Emax at 30 µM in assay [1] and in assay [2] was under 20% throughout.

With `O=C(O)c1ccc(CCNC(=O)c2cc(-c3ccco3)on2)cc1` [Derivative (32), 4-{2-[(5-furan-2-yl-isoxazole-3-carbonyl)-amino]-ethyl}-benzoic acid], the Emax at 120 µM in assay [1] was 52%; in assay [2] it was 789%.

Take `O=C(NCCn1ccnc1)c1cc(-c2ccco2)on1` [Derivative (33), 5-furan-2-yl-isoxazole-3-carboxylic acid (2-imidazol-1-yl-ethyl)-amide]: the Emax at 15 µM in assay [1] was determined as 37%. Further, in assay [2], the Emax at 120 µM came to 580%.

On to `O=C(NCCCCn1ccnc1)c1cc(-c2ccco2)on1` [Derivative (34), 5-furan-2-yl-isoxazole-3-carboxylic acid (4-imidazol-1-yl-butyl)-amide], for which the Emax at 120 µM in assay [1] is 44%; in assay [2] it was 120%.

With `Cc1cn(CCNC(=O)c2cc(-c3ccco3)on2)cn1` [Derivative (37), 5-furan-2-yl-isoxazole-3-carboxylic acid [2-(4-methyl-imidazol-1-yl)-ethyl]-amide], the Emax at 120 µM in assay [1] stood at 44%; in assay [2] it was 296%.

On to `O=C(NCCCn1ccnn1)c1cc(-c2ccco2)on1` [Derivative (49), 5-furan-2-yl-isoxazole-3-carboxylic acid (3-[1,2,3]triazol-1-yl-propyl)-amide], for which the Emax at 30 µM in assay [1] and in assay [2] was under 20% throughout.

On to `O=C(NCCCn1ncnn1)c1cc(-c2ccco2)on1` [Derivative (53), 5-furan-2-yl-isoxazole-3-carboxylic acid (3-tetrazol-2-yl-propyl)-amide], for which the Emax at 30 µM in assay [1] and in assay [2] was under 20% in each case.

On to `Cc1cn(CCCNC(=O)c2cc(-c3ccco3)on2)cn1` [Derivative (56), 5-furan-2-yl-isoxazole-3-carboxylic acid [3-(4-methyl-imidazol-1-yl)-propyl]-amide], for which, in assay [1], the Emax at 15 µM worked out at 58% and the Emax at 30 µM is under 20%. For the same molecule, the Emax at 600 µM in assay [2] (Con. 600 μM) amounted to 650%.

With `Cc1cncn1CCCNC(=O)c1cc(-c2ccco2)on1` [Derivative (57), 5-furan-2-yl-isoxazole-3-carboxylic acid [3-(5-methyl-imidazol-1-yl)-propyl]amide], the Emax at 30 µM in assay [1] and in assay [2] was under 20% each time.

For `COC(=O)c1cn(CCCNC(=O)c2cc(-c3ccco3)on2)cn1` [Derivative (58), 1-{3-[(5-furan-2-yl-isoxazole-3-carbonyl)-amino]-propyl}-1H-imidazole-4-carboxylic acid methyl ester], the Emax at 30 µM in assay [1] is under 20%; in assay [2], 270%.

For the molecule `O=C(O)c1cn(CCCNC(=O)c2cc(-c3ccco3)on2)cn1` [Derivative (59), 1-{3-[(5-furan-2-yl-isoxazole-3-carbonyl)-amino]-propyl}-1H-imidazole-4-carboxylic acid], in assay [1], the Emax at 30 µM was under 20%. Besides, in assay [2], the Emax at 60 µM was found to be 592%.

Regarding `O=C(NCCCn1cnc(Br)c1)c1cc(-c2ccco2)on1` [Derivative (60), 5-furan-2-yl-isoxazole-3-carboxylic acid [3-(4-bromo-imidazol-1-yl)-propyl]-amide], the Emax at 30 µM in assay [1] is under 20%; in assay [2], 196%.

In the case of `Cc1c(C(=O)NCCCn2ccnc2)noc1-c1ccco1` [Derivative (65), 5-furan-2-yl-4-methyl-isoxazole-3-carboxylic acid (3-imidazol-1-yl-propyl)-amide], the Emax at 30 µM in assay [1] and in assay [2] was under 20% in each case.

(Values after patent US7915297B2, “Isoxazole derivatives and use thereof” (SK Holdings Co., Ltd., priority 2005, dated 2011).)
